Calls of active or inactive are those of the source. The rule behind the calls is not given here.
Key:
[1] = Antioxidant activity assessed as DPPH radical scavenging activity after 30 mins under dark condition by spectrophotometric analysis; type: functional
[2] = test system: Mus musculus; assay: (§1) Antioxidant activity in ip dosed Swiss albino mouse assessed as reduction in gamma irradiation-induced hepatic oxidative stress by measuring increase in SOD activity in liver at 1/10 x LD50 treated at 2 hrs prior to 5 Gy gamma irradiation exposure on 1st day followed by compound treatment for next 2 days and measured at 24 hrs post last dose; type: functional; parameters: scale not given: the % may be the effect or the level left; conditions: time 3 day
[3] = test system: Mus musculus; assay: as §1, with “reduction” for “increase”, “MDA level” for “SOD activity”; type: functional; conditions: time 3 day
[4] = test system: Mus musculus; assay: as §1, with “Radioprotective” for “Antioxidant”, “decrease in PON1 activity” for “hepatic oxidative stress”, “PON1” for “SOD”; type: functional; parameters: scale not given: the % may be the effect or the level left; conditions: time 3 day
[5] = test system: Mus musculus; assay: Hepatoprotective activity in ip dosed Swiss albino mouse assessed as serum ALT level at 1/10 x LD50 treated at 2 hrs prior to 5 Gy gamma irradiation exposure on 1st day followed by compound treatment for next 2 days and measured at 24 hrs post last dose; type: functional, organism-based; conditions: time 3.0 day
[6] = test system: Mus musculus; assay: as §1, with “reduction” for “increase”, “ROS level” for “SOD activity”; type: functional; conditions: time 3 day
[7] = test system: Mus musculus; assay: Radioprotective activity in ip dosed Swiss albino mouse assessed as reduction in gamma-irradiation-induced decline in serum albumin level at 1/10 x LD50 treated at 2 hrs prior to 5 Gy gamma irradiation exposure on 1st day followed by compound treatment for next 2 days and measured at 24 hrs post last dose; type: functional, organism-based; conditions: time 3.0 day
[8] = test system: Mus musculus; assay: as §1, with “Zn2+ concentration” for “SOD activity”; type: functional; parameters: scale not given: the % may be the effect or the level left; conditions: time 3 day
[9] = Acute toxicity in ip dosed Swiss albino mouse measured after 24 hrs; type: organism-based; conditions: in vivo
[10] = test system: Mus musculus; assay: Hepatoprotective activity in ip dosed Swiss albino mouse assessed as serum AST level at 1/10 x LD50 treated at 2 hrs prior to 5 Gy gamma irradiation exposure on 1st day followed by compound treatment for next 2 days and measured at 24 hrs post last dose; type: functional, organism-based; conditions: time 3.0 day
[11] = test system: Mus musculus; assay: Radioprotective activity in ip dosed Swiss albino mouse assessed as reduction in gamma irradiation-induced increase in NF-kappaB activity by measuring decrease in NFkappaB activity in liver at 1/10 x LD50 treated at 2 hrs prior to 5 Gy gamma irradiation exposure on 1st day followed by compound treatment for next 2 days and measured at 24 hrs post last dose by ELISA; type: functional; conditions: time 3 day

Cn1c(NC(=O)CSc2nc3ccccc3c(=O)n2-c2ccc(S(N)(=O)=O)cc2)cc(=O)n(C)c1=O
IC50 [1]: 56.4 µM

NS(=O)(=O)c1ccc(-n2c(SCC(=O)Nc3nc4ccc([N+](=O)[O-])cc4s3)nc3ccccc3c2=O)cc1
IC50 [1]: 94.8 µM

NS(=O)(=O)c1ccc(-n2c(SCC(=O)Nc3nccs3)nc3ccccc3c2=O)cc1
IC50 [1]: 125 µM

CN1C(=O)c2ccc(NC(=O)CSc3nc4ccccc4c(=O)n3-c3ccc(S(N)(=O)=O)cc3)cc2C1=O
IC50 [1]: 48.5 µM

CCOC(=O)c1cccc(NC(=O)CSc2nc3ccccc3c(=O)n2-c2ccc(S(N)(=O)=O)cc2)c1
IC50 [1]: 65.7 µM

CCOC(=O)N1CCC(NC(=O)CSc2nc3ccccc3c(=O)n2-c2ccc(S(N)(=O)=O)cc2)CC1
IC50 [1]: 108 µM

NS(=O)(=O)c1ccc(-n2c(SCC(=O)NN3CCOCC3)nc3ccccc3c2=O)cc1
IC50 [1]: 66.4 µM

NS(=O)(=O)c1ccc(-n2c(SCC(=O)Nc3cnccn3)nc3ccccc3c2=O)cc1
Activity [2]: 157%
inhibition (INH) [3]: 49%
IC50 [1]: 45.8 µM
Activity [4]: 104.8%
Activity [5]: inactive
inhibition (INH) [6]: 30.6%
Activity [7]: Active
Activity [8]: 39.4%
LD50 at 24 h [9]: 200 mg/kg
Activity [10]: inactive
inhibition (INH) [11]: 45.6%

CCOC(=O)c1ccccc1NC(=O)CSc1nc2ccccc2c(=O)n1-c1ccc(S(N)(=O)=O)cc1
IC50 [1]: 89.5 µM

NS(=O)(=O)c1ccc(-n2c(SCC(=O)NCCN3CCOCC3)nc3ccccc3c2=O)cc1
IC50 [1]: 69.8 µM

NS(=O)(=O)c1ccc(-n2c(SCC(=O)Nc3nnc(C(F)(F)F)s3)nc3ccccc3c2=O)cc1
IC50 [1]: 107 µM

CCOc1ccc2nc(NC(=O)CSc3nc4ccccc4c(=O)n3-c3ccc(S(N)(=O)=O)cc3)sc2c1
IC50 [1]: 50.5 µM

O=C1O[C@H]([C@@H](O)CO)C(O)=C1O [ASCORBIC ACID]
IC50 [1]: 132 µM

NS(=O)(=O)c1ccc(-n2c(SCC(=O)Nc3c[nH]c(=O)[nH]c3=O)nc3ccccc3c2=O)cc1
IC50 [1]: 54.4 µM

Cc1cc(NC(=O)CSc2nc3ccccc3c(=O)n2-c2ccc(S(N)(=O)=O)cc2)no1
IC50 [1]: 82.4 µM

NS(=O)(=O)c1ccc(-n2c(SCC(=O)NC3CCN(Cc4ccccc4)CC3)nc3ccccc3c2=O)cc1
IC50 [1]: 104 µM

Source: ChEMBL document CHEMBL4680255, “Antioxidant activity of novel quinazolinones bearing sulfonamide: Potential radiomodulatory effects on liver tissues via NF-κB/ PON1 pathway” (Eur J Med Chem, 2020)
